From patent US5104492A, “Recovery of carboxylic acids from water by precipitation from organic solutions” (The Regents of the University of California, priority 1990, dated 1992)

How the values were obtained:
[1] = Solubility in octanol (Example 4 repeated); format: physicochemical
From the text: (§1) The use of MIBK plus 0.064 M tri-octyl/decyl amine as an organic phase was studied.
The experiment of Example 4 was repeated using octanol as organic solvent.

[2] = Solubility in butyl ether (Example 4 repeated); format: physicochemical
From the text: as §1
The experiment of Example 4 was repeated using butyl ether as organic solvent.

[3] = Solubility in MIBK plus 0.064 M tri-octyl/decyl amine; format: physicochemical
From the text: as §1

[4] = From the text: An aqueous solution of fumaric acid was extracted with methyl isobutyl ketone (MIBK).

O=C(O)/C=C/C(=O)O [fumaric acid]
Acid Concentration ([1]; water 0.066 moles/liter): 0.0614 mol/L | Acid Concentration ([1]; water 1.54 moles/liter): 0.0899 mol/L | Acid Concentration ([1]; water 2.24 moles/liter): 0.0961 mol/L | Acid Concentration ([2]; water 0.0005 moles/liter): 0.0023 mol/L | Acid Concentration ([2]; water 0.084 moles/liter): 0.0036 mol/L | Acid Concentration ([3]; nearly anhydrous): 0.115 mol/L | Acid Concentration ([3]; water saturated): 0.158 mol/L | solubility relative to the level observed at saturation level of water [4]: less than 1/5th | amount of acid in MIBK extract ([4]; MIBK extract before stripping, […] by weight water): 0.0874 mol/L | solubility of the acid in the ketone ([4]; dry mibk): 15.8 mM
